# Tests used:
# HNE [1] = biological target: T1, HNE (Homo sapiens, UniProt P08246); test: Kinetics of HNE inhibition (double-reciprocal Lineweaver–Burk plots); type: biochemical; conditions: Lineweaver–Burk plot of fluorogenic substrate hydrolysis
# T1 construct: purchased Calbiochem
# T1 sequence (P08246 30-267): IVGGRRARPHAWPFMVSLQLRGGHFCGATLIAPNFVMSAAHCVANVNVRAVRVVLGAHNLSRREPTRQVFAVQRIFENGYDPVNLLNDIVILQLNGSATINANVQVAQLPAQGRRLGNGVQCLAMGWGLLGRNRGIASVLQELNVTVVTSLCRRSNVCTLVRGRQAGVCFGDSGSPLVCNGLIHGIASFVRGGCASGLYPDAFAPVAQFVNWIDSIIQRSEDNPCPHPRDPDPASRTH
# Source text: To better understand the mechanism of action of these isoxazolone HNE inhibitors, we performed kinetic experiments.
# Figure 7. Kinetics of HNE inhibition by compounds 7d and 8d. Representative double reciprocal Lineweaver–Burk plots are shown from three independent experiments.
# [2] = Analysis of compound stability: spontaneous hydrolysis in aqueous buffer; type: physicochemical; conditions: 25 °C, 0.05 M phosphate buffer, pH 7.3; read-out: t1/2 for spontaneous hydrolysis (converted)
# Description: Spontaneous hydrolysis of selected derivatives was evaluated at 25 °C in 0.05 M phosphate buffer, pH 7.3. Kinetics of hydrolysis were monitored by measuring changes in the absorbance spectra over time using a SpectraMax Plus microplate spectrophotometer (Molecular Devices, Sunnyvale, CA). Absorbance (At) at the characteristic absorption maxima of each compound was measured at the indicated times until no further absorbance decreases occurred (A∞)[52]. Using these measurements, we created semilogarithmic plots of log(At–A∞) versus time, and k′ values were determined from the slopes of these plots. Half-conversion times were calculated using t1/2 = 0.693/k′, as described previously[36]^,[37].
# [3] = biological target: T2, HNE (human neutrophil elastase) (Homo sapiens, UniProt P08246); test: HNE inhibition assay (fluorogenic substrate cleavage); type: biochemical; conditions: mean ± SD of three independent experiments; NA: no inhibitory activity at the highest concentration tested (50 µM)
# T2 construct: purchased Calbiochem
# T2 sequence (P08246 30-267): T1 sequence (P08246 30-267)
# Description: Compounds were dissolved in 100% DMSO at 5 mM stock concentrations. […] The HNE inhibition assay was performed in black flat-bottom 96-well microtiter plates. Briefly, a buffer solution containing 200 mM Tris–HCl, pH 7.5, 0.01% bovine serum albumin, and 0.05% Tween-20 and 20 mU/mL of HNE (Calbiochem) was added to wells containing different concentrations of each compound. The reaction was initiated by addition of 25 µM elastase substrate (N-methylsuccinyl-Ala-Ala-Pro-Val-7-amino-4-methylcoumarin, Calbiochem) in a final reaction volume of 100 µl/well. Kinetic measurements were obtained every 30 s for 10 min at 25 °C using a Fluoroskan Ascent FL fluorescence microplate reader (Thermo Electron, MA) with excitation and emission wavelengths set at 355 and 460 nm, respectively. For all compounds tested, the concentration of inhibitor that caused 50% inhibition of the enzymatic reaction (IC50) was calculated by plotting % inhibition versus logarithm of inhibitor concentration (at least six points). The data are presented as the mean values of at least three independent experiments with relative standard deviations of <15%.
# HNE [4] = biological target: T1, HNE; test: Reversibility of HNE inhibition over extended periods of time; type: biochemical; conditions: 8 µM compound
# Description: The inhibition was maximal for up to 60 min with compound 7e and >120 min for the other tested compounds (4a, 4b, and 7a). However, inhibition by the compounds was eventually reversed, and full recovery of HNE activity was observed by 4 h after treatment with 8 µM of the compound (e.g. see Figure 6).
# Figure 6. […] HNE was incubated with the indicated compounds (8 µM), and kinetic curves monitoring substrate cleavage catalysed by HNE over time are shown. Representative curves are from two independent experiments.
mechanism of HNE inhibition (HNE [1]),half-life [2] [h],melting point [°C],IC50 [3] [nM],time for which HNE inhibition was maximal (HNE [4]),time after which HNE inhibition was reversed (HNE [4]) [min],SMILES
competitive,2.9,57 to 60,540 ± 110,,,"CC(=O)Nc1ccc(-c2c(C)noc2OC(=O)c2cccc(C)c2)cc1 [Compound 8d, 4-(4-Acetamidophenyl)-3-methylisoxazol-5-yl3-methylbenzoate]"
,9.6,120 to 123,50 ± 20,up to 60 min,,"Cc1cccc(C(=O)n2oc(=O)c(-c3ccc(NC(=O)C4CC4)cc3)c2C)c1 [Compound 7e, N-(4-(3-methyl-2-(3-methylbenzoyl)-5-oxo-2,5-dihydroisoxazol-4-yl)phenyl)ciclopropanecarboxamide]"
,4.1,85 to 88,77 ± 27,> 120 min,,"Cc1cccc(C(=O)n2oc(=O)c(-c3ccccc3)c2C)c1 [Compound 4a, 3-Methyl-2-(3-methylbenzoyl)-4-phenylisoxazol-5(2H)-one]"
competitive,3.9,159 to 160,50 ± 20,,~30,"CC(=O)Nc1ccc(-c2c(C)n(C(=O)c3cccc(C)c3)oc2=O)cc1 [Compound 7d, N-(4-(3-methyl-2-(3-methylbenzoyl)-5-oxo-2,5-dihydroisoxazol-4-yl)phenyl)acetamide]"
